Consider 13 compounds from PubChem BioAssay (NCI).

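Growth conditions: 96-well plates. Treatment: test compound, 48 hours, 5 concentrations. Analysis: linear interpolation between bracketing concentrations; unreached endpoints set to highest concentration. GI50 = concentration required for 50% inhibition of growth. TGI marks complete inhibition of growth.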

Among the test systems are SW-620 colon; SF-268 CNS; IGROV1 ovarian; MOLT-4 leukemia; RPMI-8226 leukemia; LOX IMVI melanoma; KM12 colon; OVCAR-4 ovarian; HT29 colon; CAKI-1 renal.
Experiment in all cases: inhibition of tumour cell growth, NCI panel, 48 h

`CC(=O)N1CC(=O)NC1=S`: the TGI with SW-620 colon, in the assay on SF-268 CNS, in the assay on IGROV1 ovarian, in the assay on MOLT-4 leukemia, in the assay with RPMI-8226 leukemia and in the assay with LOX IMVI melanoma was over 100 µM each time. Further, the TGI in the assay on KM12 colon, in the assay on OVCAR-4 ovarian, in the assay with HT29 colon and with CAKI-1 renal was over 100 µM throughout.
Turning to `CSc1ccc(-c2cc(-c3nc4ccccc4[nH]3)nc(N)c2C#N)cc1`, the TGI is over 100 µM with SW-620 colon; 61.6 µM in the assay on SF-268 CNS; 55.9 µM in the assay with IGROV1 ovarian; 37.1 µM in the assay on MOLT-4 leukemia; 77.2 µM with RPMI-8226 leukemia; 44 µM with LOX IMVI melanoma. The TGI with KM12 colon worked out at 71.2 µM; with HT29 colon, 56.7 µM; in the assay on CAKI-1 renal it was 54.4 µM.
Consider `Cc1c2cc[n+](C)cc2c(C)c2c1[nH]c1ccc(Cl)cc12`, for which the TGI is 19.4 µM with SW-620 colon; 0.831 µM in the assay on SF-268 CNS; 38.2 µM with IGROV1 ovarian; 58.4 µM in the assay on MOLT-4 leukemia; over 95.6 µM in the assay on RPMI-8226 leukemia; 77.8 µM in the assay on LOX IMVI melanoma. The TGI with KM12 colon was found to be 35.5 µM; in the assay with OVCAR-4 ovarian it was 26.5 µM; with HT29 colon, 44.9 µM; with CAKI-1 renal, 53.4 µM.
As to `N#CCCOCN(CO)c1nc(N(CO)COCCC#N)nc(N(CO)COCCC#N)n1`, the TGI in the assay on SW-620 colon was 29.5 µM; with SF-268 CNS it was 45.1 µM; in the assay with IGROV1 ovarian, over 100 µM; with MOLT-4 leukemia, 50.7 µM; with RPMI-8226 leukemia it was 56.1 µM; with LOX IMVI melanoma it was over 100 µM. The results for the TGI with KM12 colon, in the assay on OVCAR-4 ovarian and in the assay on HT29 colon were over 100 µM, 64 µM and 69.9 µM, respectively.
For the compound `C=Cc1cc(OC)c2c(c1)c(=O)oc1c2cc(OC)c2c(O)ccc(C3OC(C)C(O)C(C)(O)C3O)c21` (centres undefined), the GI50 in the assay on SW-620 colon was 0.000502 µM; with SF-268 CNS it was 0.000148 µM; with IGROV1 ovarian it was 0.00143 µM; in the assay on MOLT-4 leukemia it was 0.0198 nM; with RPMI-8226 leukemia, 0.000432 µM; in the assay on LOX IMVI melanoma it was 0.000281 µM. Further, the GI50 in the assay on OVCAR-4 ovarian is 0.00215 µM; in the assay with HT29 colon, 0.000815 µM; with CAKI-1 renal, 0.00224 µM. Further, the TGI in the assay with IGROV1 ovarian was found to be 1.08 µM; in the assay on HT29 colon, 0.666 µM; in the assay on CAKI-1 renal, 0.0916 µM.
`CN=C(N)/N=C(\N)Nc1cc2ccccc2c2ccccc12`: the TGI in the assay on SW-620 colon worked out at 34 µM; with SF-268 CNS, 27.5 µM; in the assay with IGROV1 ovarian, 35.5 µM; in the assay on MOLT-4 leukemia, 34 µM; in the assay on RPMI-8226 leukemia, 43.3 µM; in the assay on LOX IMVI melanoma it was 29.7 µM. The TGI turned out to be 34.6 µM in the assay with KM12 colon, 33.6 µM with OVCAR-4 ovarian, 32.9 µM with HT29 colon and 31.2 µM with CAKI-1 renal.
With `CC(C)(O)CO/N=C1\C(c2c(O)[nH]c3ccccc23)=Nc2ccccc21`, the TGI is over 86.4 µM in the assay with SW-620 colon; over 60 µM in the assay with SF-268 CNS; 13.9 µM in the assay with IGROV1 ovarian; over 43.1 µM in the assay with MOLT-4 leukemia; over 31.6 µM in the assay on RPMI-8226 leukemia; over 24.3 µM in the assay on LOX IMVI melanoma. Further, the TGI with KM12 colon was 4.71 µM; in the assay with OVCAR-4 ovarian it was 21.9 µM; in the assay with HT29 colon, over 35 µM; in the assay on CAKI-1 renal, 2.32 µM.
In the case of `Cc1c(NC(=O)c2cc([N+](=O)[O-])cc([N+](=O)[O-])c2)c(=O)n(-c2ccccc2)n1C`, the TGI in the assay with SW-620 colon, in the assay with SF-268 CNS, in the assay with IGROV1 ovarian, with MOLT-4 leukemia, in the assay with RPMI-8226 leukemia and with LOX IMVI melanoma was over 100 µM throughout. Also, the TGI in the assay with KM12 colon, in the assay with OVCAR-4 ovarian, in the assay with HT29 colon and in the assay on CAKI-1 renal was over 100 µM throughout.
With `NC(=O)Nc1ccc(C(=O)NCCCNC(=O)c2ccc(NC(N)=O)cc2)cc1`, the TGI in the assay on SW-620 colon, in the assay on SF-268 CNS, in the assay on IGROV1 ovarian, in the assay with MOLT-4 leukemia, with RPMI-8226 leukemia and with LOX IMVI melanoma was over 100 µM in each case. In addition, the TGI in the assay with KM12 colon, with OVCAR-4 ovarian, in the assay on HT29 colon and with CAKI-1 renal was over 100 µM each time.
Turning to `COc1c(O)c(O)c2c(c1O)C(=O)c1cc(C)cc(O)c1C2=O`, the TGI in the assay on SW-620 colon, with SF-268 CNS, in the assay with IGROV1 ovarian, with MOLT-4 leukemia, in the assay with RPMI-8226 leukemia and in the assay on LOX IMVI melanoma was over 100 µM each time. In addition, the TGI in the assay with KM12 colon is over 100 µM; with OVCAR-4 ovarian, over 89.1 µM; with HT29 colon it was over 85.4 µM; with CAKI-1 renal, over 100 µM.
As for `Cc1ccc([N+](=O)[O-])cc1S(=O)(=O)Nc1ccc(C2=NN(C(=O)c3ccccc3)C(c3cccs3)C2)cc1` (centres undefined), the TGI in the assay on SW-620 colon, in the assay on SF-268 CNS, with IGROV1 ovarian, in the assay with MOLT-4 leukemia, in the assay with RPMI-8226 leukemia and with LOX IMVI melanoma was over 100 µM in each case. Moreover, the TGI in the assay on KM12 colon, in the assay on OVCAR-4 ovarian, in the assay on HT29 colon and in the assay on CAKI-1 renal was over 100 µM each time.
In the case of `COc1ccccc1/C=C/c1c(N)ncnc1Nc1cccc(Cl)c1`, the TGI was over 100 µM in the assay with SW-620 colon; 38.8 µM with SF-268 CNS; 27.7 µM in the assay on IGROV1 ovarian; over 100 µM with MOLT-4 leukemia; 31.2 µM in the assay on RPMI-8226 leukemia; over 100 µM in the assay with KM12 colon. In addition, the results for the TGI in the assay with OVCAR-4 ovarian, in the assay with HT29 colon and in the assay with CAKI-1 renal were 34.4 µM, 87.2 µM and 58.9 µM, respectively.
For the compound `Cc1ccc2ccc3ccc(C)nc3c2n1`, the TGI with SW-620 colon, in the assay on SF-268 CNS, in the assay with IGROV1 ovarian, in the assay on MOLT-4 leukemia, in the assay on RPMI-8226 leukemia and in the assay with LOX IMVI melanoma was over 100 µM in each case. Moreover, the TGI with KM12 colon, with OVCAR-4 ovarian, in the assay on HT29 colon and with CAKI-1 renal was over 100 µM in each case.
